This note sets out measurements from patent US20260125357A1, “LACTATE ENHANCING COMPOUNDS AND USES THEREOF” (GLIAPHARM SA, priority 2022, published 2026).

What is called EC50 is the concentration that produces a half-maximal response.

SMILES strings stand for the structures. Bounds are passed on as bounds.

This experiment concerns primary astrocytes. The experiment in a line: Extracellular medium acidification (SNARF5) assay in astrocytes. The class given is cell-based. To be noted: Mus musculus, Astrocyte; astrocytes in vitro; compounds 10 nM to 30 μM; read-out: Activity (EC50 class, extracellular medium acidification SNARF5). The procedure: To assess for the effect of the compounds of the invention, those were tested in primary mouse astrocytes and astrocytes differentiated from human-derived induced pluripotent stem cells (iPSCs). Secretion of lactate was measured indirectly through the acidification of extracellular medium using extracellular pH sensor SNARE-5F-(AND-6)-CAR (SNARF5) as described below.
Primary cultures of cerebrocortical astrocytes were obtained from 1 to 2-day-old OF1 mouse pups (Charles River Laboratories). Briefly, cortices were isolated and minced in small pieces under a dissecting microscope. The cells were incubated for 30 min at 37° C. in a solution containing 20 U/ml papain, 1 mM L-cysteine and 10 kU/ml DNase I. After dissociation, papain activity was stopped by the addition of fetal calf serum (FCS). Single-cell suspension was then obtained by mechanical dissociation, which consisted in cells trituration in a DMEM D7777 medium supplemented with 44 mm NaHCO3, 10 ml/L antibiotic/antimycotic solution and 10% FCS. The cells were seeded at an average density of ˜10′000 cells/cm^2 on poly-D-lysine coated 96- or 12-well culture plates, depending on their use, and grown in DMEM D7777 medium supplemented with 44 mm NaHCO3, 10 ml/L antibiotic/antimycotic solution and 10% FCS at 37° C. in a humidified atmosphere containing 5% CO2/95% air. Culture medium was renewed twice a week. Cells were stimulated and harvested between DIV14 and DIV17, when confluence and cell growth were optimal.
Secretion of lactate was measured indirectly through the acidification of extracellular medium using extracellular pH sensor SNARF-5F-(AND-6)-CAR (SNARF5). After washing cells twice with stimulation medium (DMEM (D5030, Sigma), 1 mM […], and 5 mM Glucose, pH 7.4) at 37° C., cells were stimulated with compounds at a final concentration ranging from 10 nM to 30 μM in 50 μl per well of stimulation medium supplemented with 10 μM of SNARF5 (Life Technologies Corporation). Each compound was tested in two different plates for duplicates. After 30, 60 and 90 min stimulation, fluorescence was read at exc. (excitation) 480 nm/emm. (emission) 580 nm and at exc 480 nm/emm. 630 nm. The ratio of fluorescence between 630 nm and 580 emission values, which is proportional to extracellular pH, was calculated. In each plate, 8 wells were used for negative controls (DMSO 0.1%) and 8 wells were used for positive controls (CCCP 2 μM in DMSO). Results are shown as % of positive control effect (0% and 100% being activities of the Veh and positive control, respectively).

For the molecule `CCOc1cc2ccnc(Nc3ccc(S(C)(=O)=O)cc3)c2cc1O` [Compound 6, 6-ethoxy-1-(4-methylsulfonylanilino)isoquinolin-7-ol], the EC50 was above 1000 nM.

Turning to `CCOc1cc2c(Nc3ccc(S(C)(=O)=O)cc3)nccc2cc1O` [Compound 7, 7-ethoxy-1-(4-methylsulfonylanilino)isoquinolin-6-ol], the EC50 is above 1000 nM.

Regarding `CCOc1cc2ccnc(Nc3ccc(S(C)(=O)=O)cc3)c2cc1OCC` [Compound 8, 6,7-diethoxy-N-(4-methylsulfonylphenyl)isoquinolin-1-amine], the EC50 is below 1000 nM.

Take `CC(C)Oc1ccc2c(Nc3ccc(S(C)(=O)=O)cc3)nccc2c1` [Compound 11, 6-isopropoxy-N-(4-methylsulfonylphenyl)isoquinolin-1-amine]: the EC50 was below 1000 nM.

With `CS(=O)(=O)c1ccc(Nc2nccc3cc(-c4ncccn4)ccc23)cc1` [Compound 12, N-(4-methylsulfonylphenyl)-6-pyrimidin-2-yl-isoquinolin-1-amine], the EC50 was below 1000 nM.

Regarding `CS(=O)(=O)c1ccc(Nc2nccc3ccc(O)cc23)cc1` [Compound 13, 1-(4-methylsulfonylanilino)isoquinolin-7-ol], the EC50 is above 1000 nM.

With `CC(=O)Nc1ccc2ccnc(Nc3ccc(S(C)(=O)=O)cc3)c2c1` [Compound 14, N-[1-(4-methylsulfonylanilino)-7-isoquinolyl]acetamide], the EC50 is below 1000 nM.

For `CCNc1ccc2ccnc(Nc3ccc(S(C)(=O)=O)cc3)c2c1` [Compound 15, N7-ethyl-N1-(4-methylsulfonylphenyl)isoquinoline-1,7-diamine], the EC50 is above 1000 nM.

As for `C=Cc1cc2c(Nc3ccc(S(C)(=O)=O)cc3)nccc2cc1OC` [Compound 16, 6-methoxy-N-(4-methylsulfonylphenyl)-7-vinyl-isoquinolin-1-amine], the EC50 is below 1000 nM.

Consider `CCc1cc2c(Nc3ccc(S(C)(=O)=O)cc3)nccc2cc1OC` [Compound 17, 7-ethyl-6-methoxy-N-(4-methylsulfonylphenyl)isoquinolin-1-amine], for which the EC50 is below 1000 nM.

Regarding `CCc1cc2c(Nc3ccc(S(C)(=O)=O)cc3)nccc2cc1O` [Compound 18, 7-ethyl-1-(4-methylsulfonylanilino)isoquinolin-6-ol], the EC50 is below 1000 nM.

`CS(=O)(=O)c1ccc(Nc2nccc3cc(O)c(Br)cc23)cc1` [Compound 19, 7-bromo-1-(4-methylsulfonylanilino)isoquinolin-6-ol]: the EC50 was below 1000 nM.

Consider `COc1cc2ccnc(Nc3ccc(S(C)(=O)=O)cc3)c2cc1NCc1ccccc1` [Compound 20, N7-benzyl-6-methoxy-N1-(4-methylsulfonylphenyl)isoquinoline-1,7-diamine], for which the EC50 was below 1000 nM.

For the molecule `COc1cc2ccnc(Nc3ccc(S(C)(=O)=O)cc3)c2cc1NCC1CC1` [Compound 21, N7-(cyclopropylmethyl)-6-methoxy-N1-(4-methylsulfonylphenyl)isoquinoline-1,7-diamine], the EC50 is below 1000 nM.

As to `CCCNc1cc2c(Nc3ccc(S(C)(=O)=O)cc3)nccc2cc1OC` [Compound 22, 6-methoxy-N1-(4-methylsulfonylphenyl)-N7-propyl-isoquinoline-1,7-diamine], the EC50 was below 1000 nM.

Take `COc1cc2c(Nc3ccc(S(C)(=O)=O)cc3)nccc2cc1NCC1CC1` [Compound 23, N6-(cyclopropylmethyl)-7-methoxy-N1-(4-methylsulfonylphenyl)isoquinoline-1,6-diamine]: the EC50 was below 1000 nM.

With `COc1cc2c(Nc3ccc(S(C)(=O)=O)cc3)nccc2cc1N1CCC1` [Compound 24, 6-(azetidin-1-yl)-7-methoxy-N-(4-methylsulfonylphenyl)isoquinolin-1-amine], the EC50 was below 1000 nM.

`CCc1cc2ccnc(Nc3ccc(S(C)(=O)=O)cc3)c2cc1O` [Compound 25, 6-ethyl-1-[(4-methanesulfonylphenyl)amino]isoquinolin-7-ol]: the EC50 is below 1000 nM.

In the case of `CCOc1cc2ccnc(Nc3ccc(S(=O)(=O)CC)cc3)c2cc1OCC` [Compound 26, N-[4-(ethanesulfonyl)phenyl]-6,7-diethoxyisoquinolin-1-amine], the EC50 was below 1000 nM.

Turning to `CCOc1cc2ccnc(Nc3ccc(C4COC4)cc3)c2cc1OCC` [Compound 27, 6,7-diethoxy-N-[4-(oxetan-3-yl)phenyl]isoquinolin-1-amine], the EC50 was below 1000 nM.

Regarding `CCOc1cc2ccnc(Nc3ccc(-c4ccon4)cc3)c2cc1OCC` [Compound 28, 6,7-diethoxy-N-[4-(1,2-oxazol-3-yl)phenyl]isoquinolin-1-amine], the EC50 is below 1000 nM.

With `CCOc1cc2ccnc(Nc3ccc(-c4ccno4)cc3)c2cc1OCC` [Compound 29, 6,7-diethoxy-N-[4-(1,2-oxazol-5-yl)phenyl]isoquinolin-1-amine], the EC50 is below 1000 nM.

Turning to `CCOc1cc2ccnc(Nc3ccc(S(C)(=O)=O)c(F)c3)c2cc1OCC` [Compound 30, 6,7-diethoxy-N-(3-fluoro-4-methanesulfonylphenyl)isoquinolin-1-amine], the EC50 is below 1000 nM.

Consider `CCOc1cc2ccnc(Nc3ccc(S(C)(=O)=O)cc3F)c2cc1OCC` [Compound 31, 6,7-diethoxy-N-(2-fluoro-4-methanesulfonylphenyl)isoquinolin-1-amine], for which the EC50 is below 1000 nM.

Take `CCOc1cc2ccnc(Nc3ccc(S(=O)(=O)C4CC4)cc3)c2cc1OCC` [Compound 32, N-[4-(cyclopropanesulfonyl)phenyl]-6,7-diethoxyisoquinolin-1-amine]: the EC50 was below 1000 nM.

With `CCOc1cc2ccnc(Nc3ccc(S(C)(=O)=O)cc3)c2cc1OCCF` [Compound 33, 6-ethoxy-7-(2-fluoroethoxy)-N-(4-methanesulfonylphenyl)isoquinolin-1-amine], the EC50 is below 1000 nM.

For `CS(=O)(=O)c1ccc(Nc2nccc3cc(OCCF)c(OCCF)cc23)cc1` [Compound 34, 6,7-bis(2-fluoroethoxy)-N-(4-methanesulfonylphenyl)isoquinolin-1-amine], the EC50 was below 1000 nM.

In the case of `CC(C)Oc1ccc2c(Cc3ccc(S(C)(=O)=O)cc3)nccc2c1` [Compound 35, 1-[(4-methanesulfonylphenyl)methyl]-6-(propan-2-yloxy)isoquinoline], the EC50 was below 1000 nM.

Take `CS(=O)(=O)c1ccc(Nc2nccc3cc(OCc4ccc(F)cc4)ccc23)cc1` [Compound 36, 6-[(4-fluorophenyl)methoxy]-N-(4-methanesulfonylphenyl)isoquinolin-1-amine]: the EC50 is below 1000 nM.

For `CCCc1cc2c(Nc3ccc(S(C)(=O)=O)cc3)nccc2cc1OCC` [Compound 37, 6-ethoxy-N-(4-methanesulfonylphenyl)-7-propylisoquinolin-1-amine], the EC50 was below 1000 nM.
